Source: the supplement of paper PMC10307832

Key:
Experiment in all cases: relative viability (nuclei count vs DMSO), 5 days (fraction); higher = more cells survive
[1] = tested on: SK-MES-1
Outline: (§1)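 Lung cancer cell lines were pin-tool dosed in 1536-well plates on the day after seeding, with either a lone drug or a fixed anchor-drug dose plus five library-drug doses (not always all listed) in √10 steps. Nuclei were counted on 4× images after 5 days. Relative viability is the ratio of treated-well to vehicle-well nuclei counts, with each value a median of duplicate plates.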

[2] = tested on: SW 900
Outline: as §1

[3] = tested on: LU99A
Outline: as §1

[4] = tested on: ABC-1
Outline: as §1

[5] = tested on: NCI-H2228
Outline: as §1

[6] = tested on: SK-LU-1
Outline: as §1

[7] = tested on: LXF-289
Outline: as §1

[8] = tested on: HOP-62
Outline: as §1

[9] = tested on: NCI-H1944
Outline: as §1

[10] = tested on: NCI-H1993
Outline: as §1

[11] = tested on: A-427
Outline: as §1

[12] = tested on: NCI-H596
Outline: as §1

[13] = tested on: NCI-H2009
Outline: as §1

[14] = tested on: NCI-H1792
Outline: as §1

[15] = tested on: SW 1573
Outline: as §1

[16] = tested on: NCI-H1793
Outline: as §1

[17] = tested on: PC-3 [JPC-3]
Outline: as §1

[18] = tested on: NCI-H2170
Outline: as §1

[19] = tested on: EMC-BAC-2
Outline: as §1

[20] = tested on: HARA
Outline: as §1

[21] = tested on: COR-L23
Outline: as §1

[22] = tested on: NCI-H3122
Outline: as §1

[23] = tested on: LK-2
Outline: as §1

[24] = tested on: NCI-H727
Outline: as §1

## COc1cc(N2CCC(C(N)=O)CC2)ccc1Nc1nc(N)c(Cl)c(Nc2ccccc2S(=O)(=O)C(C)C)n1 [HG-5-88-01] + N=C(N)NC(=N)NCCc1ccccc1 [Phenformin] (partner 250 µM)
[1]; first compound 0.04 µM
  relative viability: 0.665
[1]; first compound 0.1265 µM
  relative viability: 0.646
[1]; first compound 0.4 µM
  relative viability: 0.652
[1]; first compound 1.265 µM
  relative viability: 0.602
[1]; first compound 4 µM
  relative viability: 0.643
[2]; first compound 0.04 µM
  relative viability: 0.592
[2]; first compound 0.1265 µM
  relative viability: 0.545
[2]; first compound 0.4 µM
  relative viability: 0.622
[2]; first compound 1.265 µM
  relative viability: 0.671
[2]; first compound 4 µM
  relative viability: 0.408
[3]; first compound 0.04 µM
  relative viability: 0.801
[3]; first compound 0.1265 µM
  relative viability: 0.78
[3]; first compound 0.4 µM
  relative viability: 0.823
[3]; first compound 1.265 µM
  relative viability: 0.921
[3]; first compound 4 µM
  relative viability: 0.593
[4]; first compound 0.04 µM
  relative viability: 0.272
[4]; first compound 0.1265 µM
  relative viability: 0.233
[4]; first compound 0.4 µM
  relative viability: 0.2
[4]; first compound 1.265 µM
  relative viability: 0.207
[4]; first compound 4 µM
  relative viability: 0.24
[5]; first compound 0.04 µM
  relative viability: 0.146
[5]; first compound 0.1265 µM
  relative viability: 0.124
[5]; first compound 0.4 µM
  relative viability: 0.174
[5]; first compound 1.265 µM
  relative viability: 0.0974
[5]; first compound 4 µM
  relative viability: 0.0828
[6]; first compound 0.04 µM
  relative viability: 0.581
[6]; first compound 0.1265 µM
  relative viability: 0.594
[6]; first compound 0.4 µM
  relative viability: 0.507
[6]; first compound 1.265 µM
  relative viability: 0.463
[6]; first compound 4 µM
  relative viability: 0.288
[7]; first compound 0.04 µM
  relative viability: 0.565
[7]; first compound 0.1265 µM
  relative viability: 0.589
[7]; first compound 0.4 µM
  relative viability: 0.415
[7]; first compound 1.265 µM
  relative viability: 0.51
[7]; first compound 4 µM
  relative viability: 0.431
[8]; first compound 0.04 µM
  relative viability: 0.662
[8]; first compound 0.1265 µM
  relative viability: 0.65
[8]; first compound 0.4 µM
  relative viability: 0.654
[8]; first compound 1.265 µM
  relative viability: 0.725
[8]; first compound 4 µM
  relative viability: 0.718
[9]; first compound 0.04 µM
  relative viability: 0.213
[9]; first compound 0.1265 µM
  relative viability: 0.241
[9]; first compound 0.4 µM
  relative viability: 0.262
[9]; first compound 1.265 µM
  relative viability: 0.209
[9]; first compound 4 µM
  relative viability: 0.22
[10]; first compound 0.04 µM
  relative viability: 0.501
[10]; first compound 0.1265 µM
  relative viability: 0.471
[10]; first compound 0.4 µM
  relative viability: 0.438
[10]; first compound 1.265 µM
  relative viability: 0.558
[10]; first compound 4 µM
  relative viability: 0.527
[11]; first compound 0.04 µM
  relative viability: 0.36
[11]; first compound 0.1265 µM
  relative viability: 0.336
[11]; first compound 0.4 µM
  relative viability: 0.344
[11]; first compound 1.265 µM
  relative viability: 0.367
[11]; first compound 4 µM
  relative viability: 0.214
[12]; first compound 0.04 µM
  relative viability: 0.657
[12]; first compound 0.1265 µM
  relative viability: 0.807
[12]; first compound 0.4 µM
  relative viability: 0.612
[12]; first compound 1.265 µM
  relative viability: 0.728
[12]; first compound 4 µM
  relative viability: 0.379
[13]; first compound 0.04 µM
  relative viability: 0.475
[13]; first compound 0.1265 µM
  relative viability: 0.527
[13]; first compound 0.4 µM
  relative viability: 0.534
[13]; first compound 1.265 µM
  relative viability: 0.484
[13]; first compound 4 µM
  relative viability: 0.366
[14]; first compound 0.04 µM
  relative viability: 0.897
[14]; first compound 0.1265 µM
  relative viability: 0.647
[14]; first compound 0.4 µM
  relative viability: 0.548
[14]; first compound 1.265 µM
  relative viability: 0.525
[14]; first compound 4 µM
  relative viability: 0.291
[15]; first compound 0.04 µM
  relative viability: 0.335
[15]; first compound 0.1265 µM
  relative viability: 0.368
[15]; first compound 0.4 µM
  relative viability: 0.324
[15]; first compound 1.265 µM
  relative viability: 0.229
[15]; first compound 4 µM
  relative viability: 0.344
[16]; first compound 0.1265 µM
  relative viability: 0.431
[16]; first compound 0.4 µM
  relative viability: 0.375
[16]; first compound 4 µM
  relative viability: 0.221
[17]; first compound 0.04 µM
  relative viability: 0.48
[17]; first compound 0.1265 µM
  relative viability: 0.457
[17]; first compound 0.4 µM
  relative viability: 0.488
[17]; first compound 1.265 µM
  relative viability: 0.461
[17]; first compound 4 µM
  relative viability: 0.39
[18]; first compound 0.04 µM
  relative viability: 0.466
[18]; first compound 0.1265 µM
  relative viability: 0.442
[18]; first compound 0.4 µM
  relative viability: 0.461
[18]; first compound 1.265 µM
  relative viability: 0.304
[18]; first compound 4 µM
  relative viability: 0.352
[19]; first compound 0.04 µM
  relative viability: 0.541
[19]; first compound 0.1265 µM
  relative viability: 0.491
[19]; first compound 0.4 µM
  relative viability: 0.442
[19]; first compound 1.265 µM
  relative viability: 0.507
[19]; first compound 4 µM
  relative viability: 0.486
[20]; first compound 0.04 µM
  relative viability: 0.439
[20]; first compound 0.1265 µM
  relative viability: 0.513
[20]; first compound 0.4 µM
  relative viability: 0.48
[20]; first compound 1.265 µM
  relative viability: 0.432
[20]; first compound 4 µM
  relative viability: 0.324
[21]; first compound 0.04 µM
  relative viability: 0.458
[21]; first compound 0.1265 µM
  relative viability: 0.407
[21]; first compound 0.4 µM
  relative viability: 0.406
[21]; first compound 1.265 µM
  relative viability: 0.377
[21]; first compound 4 µM
  relative viability: 0.39
[22]; first compound 0.04 µM
  relative viability: 0.216
[22]; first compound 0.1265 µM
  relative viability: 0.17
[22]; first compound 0.4 µM
  relative viability: 0.146
[22]; first compound 1.265 µM
  relative viability: 0.129
[22]; first compound 4 µM
  relative viability: 0.15
[23]; first compound 0.04 µM
  relative viability: 0.516
[23]; first compound 0.1265 µM
  relative viability: 0.394
[23]; first compound 0.4 µM
  relative viability: 0.176
[23]; first compound 1.265 µM
  relative viability: 0.352
[23]; first compound 4 µM
  relative viability: 0.198
[24]; first compound 0.04 µM
  relative viability: 0.554
[24]; first compound 0.1265 µM
  relative viability: 0.484
[24]; first compound 0.4 µM
  relative viability: 0.394
[24]; first compound 1.265 µM
  relative viability: 0.416
[24]; first compound 4 µM
  relative viability: 0.352
